Where two headings read alike, the source gives them in different places.
What was measured:
Assay in all cases: Sulforhodamine B (SRB) cytotoxicity test
Assay type in all cases: cell-based
[1] = tested on: NCl-H460 (Lung Cancer); conditions: cells cultured 3 days with compound, read-out: Half Inhibitory Concentration for Tumor Cell Growth (IC50)
Procedure: (§1) Sulforhodamine B (SRB) test was used for screening the selective compounds of the present invention according to their anti-tumor activity on four different tumor cell lines. In SRB analysis, the cultured cells were trypsinized, counted and diluted to a suitable concentration (5000-7500 cells/100 μl) with a culture medium. The cells were inoculated into a 96-well microtiter plate at 100 μl suspension/well. After 20 hours, the test compounds which were diluted in the culture medium to 2×1000 nM˜2×0.001 nM were added to each well. The cells were then cultured for 3 days, fixed with 100 μl 10% trichloroacetic acid at 4° C. for 1 hour, and then stained with 0.2% SRB/1% acetic acid at room temperature for 20 min. The unbound dye was rinsed with 1% acetic acid. The bound dye was dissolved with 200 μl 10 mM Tris-base. The amount of the bound dye was calculated from OD value detected at the wavelength of 515 nm. The amount of the bound dye was in direct proportion to the total amount of cell proteins. The data was analyzed with Kaleida Graph program, and the half inhibitory concentration (IC50) was calculated. Epothilones D and B were detected in parallel for Comparison. The results of the cytotoxicity experiments on the selected test compounds of the present invention are shown as follows. The other compounds of the present invention may also be detected with a similar method.

[2] = tested on: MCF-7 (Breast Cancer); conditions: cells cultured 3 days with compound, read-out: Half Inhibitory Concentration for Tumor Cell Growth (IC50)
Procedure: as §1

[3] = tested on: NCI/ADR-RES (MDR Breast Cancer); conditions: cells cultured 3 days with compound, read-out: Half Inhibitory Concentration for Tumor Cell Growth (IC50)
Procedure: as §1

[4] = tested on: SF-268 (Glioma); conditions: cells cultured 3 days with compound, read-out: Half Inhibitory Concentration for Bacterial Growth (IC50)
Procedure: as §1

Row | Compound | IC50 [1] [nM] | IC50 [2] [nM] | IC50 [3] [nM] | IC50 [4] [nM] | IC50 ([1]; 72 h) [nM] | IC50 ([2]; Homo sapiens, MCF7, 72 h) [nM] | IC50 ([3]; Homo sapiens, 72 h) [nM] | IC50 ([4]; Homo sapiens, 72 h) [nM]
1 | 14-N(CH3)2 Epothilone B [II-L] | 0.5 | 0.05 | 0.1 | 1 | – | – | – | –
2 | COC1/C=C(/C)CCC[C@H](C)[C@H](O)[C@@H](C)C(=O)C(C)[C@@H](O)CC(=O)O[C@@H]1/C(C)=C/c1csc(C)n1 (stereo partly drawn) [II-N] | – | – | – | – | 2 | 2 | 7 | 3
3 | 14-NH2 Epothilone B [II-B] | 0.2 | 0.1 | 0.5 | 0.2 | – | – | – | –
4 | C/C(=C\c1csc(C)n1)[C@@H]1C[C@@H]2O[C@]2(C)CCC[C@H](C)[C@H](O)[C@@H](C)C(=O)C(C)(C)[C@@H](O)CC(=O)O1 [Epo B, Epothilone B, reference compound] | 0.7 | 0.5 | 5 | 0.8 | – | – | – | –
5 | C/C1=C/C[C@@H](/C(C)=C/c2csc(C)n2)OC(=O)C[C@H](O)C(C)(C)C(=O)[C@H](C)[C@@H](O)[C@@H](C)CCC1 [Epo D, Epothilone D, reference compound] | 17 | 13 | 42 | 18 | – | – | – | –
6 | 14-NH2 Epothilone D [II-A] | 7 | 7 | 12 | 6 | – | – | – | –
